Results as given in patent US20110312996A1, “NOVEL INHIBITORS OF HEPATITIS C VIRUS REPLICATION” (priority 2010, published 2011).

Each compound was assayed on Huh7 cells containing HCV replicons with an integrated luciferase reporter gene (assay: HCV Replicon Assay (luciferase reporter)). Settings: Hepatitis C virus, Huh-7, 48 h, read-out: EC50 nM.
Assay type: cell-based
Description: Huh7 cells containing HCV replicons with an integrated luciferase reporter gene are maintained at 37° C. in 5% CO2 in Dulbecco's modified Eagle's medium (DMEM; Mediatech, Herndon, Va.) containing 10% heat-inactivated fetal bovine serum (FBS; Mediatech, Herndon, Va.), 2 mM L-glutamine (Cambrex Bioscience, Walkersville, Md.), 1% non essential amino acids (Lonza, Walkersville, Md.), 50 IU/mL penicillin (Mediatech, Herndon, Va.), […] streptomycin (Mediatech, Herndon, Va.) and 0.5 mg/mL G418 (Promega, Madison, Wis.). Cells are sub-divided 1:3 or 4 every 2-3 days.
24 h prior to the assay, Huh7 cells containing sub-genomic HCV replicons are collected, counted, and plated in Nunclon 96-well tissue culture plates (ThermoFisher, Rochester, N.Y.) at 5000 cells/well in […] standard maintenance medium (above) and incubated in the conditions above. To initiate the assay, culture medium is removed, and replaced with […] maintenance media lacking G418. Test compounds are serially diluted three-fold in dimethyl sulfoxide (DMSO) in two duplicate rows for each EC50 determination. These compound solutions are diluted ten-fold in DMEM lacking serum and G418. […] of these compound solutions in media are added to duplicate tissue culture plates. The final volume is 100 μL with a DMSO concentration of 1%. Compound concentrations are adjusted to appropriately define a dose response curve. Typical dilution series range from […] to 1.69 nM final concentrations to 1 nM to 16.9 fM final. Plates are incubated at 37° C. for approximately 48 hr.
Following incubation, media is removed from one of the two duplicate plates and replicon-reporter luciferase activity is measured using a Bright-Glo luciferase assay kit (Promega, Madison, Wis.) according to manufacturer's instructions. Semi-log plots of luciferase activity versus the logarithm of compound concentration are fit to a 4-parameter logistic function using XLfit software (IDBS Inc., Guildford, UK) to determine EC50.
With `COC(=O)N[C@H](C(=O)N1CCC[C@H]1C(=O)Nc1ccc2cc(-c3ccccc3)ccc2c1)C(C)C` [Compound 502] the EC50 was > 100 nM.

Same assay, conditions: Hepatitis C virus, Huh-7; Huh7 sub-genomic HCV replicon, luciferase activity, approximately 48 hr incubation; read-out: EC50
For `COC(=O)N[C@H](C(=O)N1CCC[C@H]1c1nc(-c2ccc(-c3ccc(-c4c[nH]c([C@@H]5CCCN5C(=O)[C@@H](NC(=O)OC)c5ccc(F)cc5)n4)cc3)cc2)c[nH]1)c1ccc(F)cc1` [Compound 421], the EC50 was < 10 nM.
In the case of `COC(=O)N[C@H](C(=O)N1CCC[C@H]1c1nc2ccc(-c3ccc(-c4ccc5nc([C@@H]6CCCN6C(=O)[C@@H](NC(=O)OC)c6ccc(F)cc6)[nH]c5c4)cc3)cc2[nH]1)c1ccc(F)cc1` [Compound 422], the EC50 is reported as < 10 nM.
For `COC(=O)N[C@H](C(=O)N1CCC[C@H]1c1nc(-c2ccc(-c3ccc(-c4c[nH]c([C@@H]5CCCN5C(=O)[C@@H](NC(=O)OC)C(C(F)(F)F)C(F)(F)F)n4)cc3)cc2)c[nH]1)C(C(F)(F)F)C(F)(F)F` [Compound 423], the EC50 was < 10 nM.
With `COC(=O)N[C@H](C(=O)N1CCC[C@H]1c1nc(-c2ccc(-c3ccc(-c4c[nH]c([C@@H]5CCCN5C(=O)[C@@H](NC(=O)OC)c5cccc(F)c5)n4)cc3)cc2)c[nH]1)c1cccc(F)c1` [Compound 424] the EC50 was < 10 nM.
For `COC(=O)N[C@H](C(=O)N1CCC[C@H]1C(=O)OCC(=O)c1ccc(N2CCN(Cc3ccccc3)CC2)cc1)C(C)C` [Compound 501], the EC50 was > 100 nM.
For `COC(=O)N[C@H](C(=O)N1CCC[C@H]1c1nc(-c2ccccc2)c[nH]1)C(C)C` [Compound 504], the EC50 was > 100 nM.
`COc1ccc2cc(-c3c[nH]c([C@@H]4CCCN4C(=O)OC(C)(C)C)n3)ccc2c1` [Compound 505] was tested, and the EC50 was > 100 nM.
With `COC(=O)N[C@H](C(=O)N1CCC[C@H]1C(=O)NCc1ccc(-c2ccc(-c3c[nH]c([C@@H]4CCCN4C(=O)[C@@H](NC(=O)OC)C(C)C)n3)cc2)cc1)C(C)C` [Compound 506] the EC50 was < 10 nM.
For `COC(=O)N[C@H](C(=O)N1CCC[C@H]1c1nc(-c2ccc(-c3ccc(-c4c[nH]c([C@@H]5CCCN5C(=O)[C@@H](NC(=O)OC)C(C)C)n4)c4c3CCC4)c3c2CCC3)c[nH]1)C(C)C` [Compound 601], the EC50 was < 10 nM.
In the case of `COC(=O)N[C@H](C(=O)N1CCC[C@H]1c1nc(-c2ccc(-c3ccc(-c4c[nH]c([C@@H]5CCCN5C(=O)[C@@H](NC(=O)OC)C(C)C)n4)c4ocnc34)c3ncoc23)c[nH]1)C(C)C` [Compound 602], the EC50 is reported as < 10 nM.
For `COC(=O)NC(C(=O)N1CCC[C@H]1c1nc(-c2ccc(-c3ccc(-c4c[nH]c(N5CCCN5C(=O)[C@@H](NC(=O)OC)C(C)C)n4)c4scnc34)c3ncsc23)c[nH]1)C(C)C` (stereo partly drawn) [Compound 603], the EC50 was < 10 nM.
With `COC(=O)N[C@H](C(=O)N1CCC[C@@]1(C)c1nc(-c2ccc(-c3ccc(-c4c[nH]c([C@]5(C)CCCN5C(=O)[C@@H](NC(=O)OC)C(C)C)n4)c4c3CCC4)c3c2CCC3)c[nH]1)C(C)C` [Compound 604] the EC50 was < 10 nM.
With `COC(=O)N[C@H](C(=O)N1CCC[C@H]1c1nc(-c2ccc(-c3ccc(-c4c[nH]c([C@]5(C)CCCN5C(=O)[C@@H](NC(=O)OC)C(C)C)n4)c4c3CCC4)c3c2CCC3)c[nH]1)C(C)C` [Compound 605] the EC50 was < 10 nM.
`COC(=O)N[C@H]1CC[C@H]2CC[C@@H](c3nc(-c4ccc(-c5ccc(-c6c[nH]c([C@@H]7CC[C@@H]8CC[C@H](NC(=O)OC)C(=O)N87)n6)cc5)cc4)c[nH]3)N2C1=O` [Compound 801] was tested, and the EC50 was > 100 nM.
For `COC(=O)N[C@H]1CC[C@H]2CC[C@@H](C(=O)Nc3ccc(/C=C/c4ccc(NC(=O)[C@@H]5CC[C@@H]6CC[C@H](NC(=O)OC)C(=O)N65)cc4)cc3)N2C1=O` [Compound 802], the EC50 was > 100 nM.
In the case of `COC(=O)N[C@H]1CC[C@H]2CC[C@@H](c3nc(-c4ccc(-c5ccc(-c6c[nH]c([C@@H]7CCCN7C(=O)[C@@H](NC(=O)OC)C(C)C)n6)cc5)cc4)c[nH]3)N2C1=O` [Compound 803], the EC50 is reported as < 10 nM.
In the case of `COC(=O)N[C@H]1CC[C@@H]2CC[C@@H](c3nc(-c4ccc(-c5ccc(-c6c[nH]c([C@@H]7CCCN7C(=O)[C@@H](NC(=O)OC)C(C)C)n6)cc5)cc4)c[nH]3)N2C1=O` [Compound 804], the EC50 is reported as < 10 nM.
`COC(=O)N[C@H]1CC[C@H]2CC[C@@H](c3nc(-c4ccc(-c5ccc(-c6c[nH]c([C@]7(C)CCCN7C(=O)[C@@H](NC(=O)OC)C(C)C)n6)cc5)cc4)c[nH]3)N2C1=O` [Compound 805] showed an EC50 of 10 to 100 nM.
`COC(=O)N[C@H]1CCC[C@@H]2CC[C@@H](c3nc(-c4ccc(-c5ccc(-c6c[nH]c([C@@H]7CCCC7C(=O)[C@@H](NC(=O)OC)C(C)C)n6)cc5)cc4)c[nH]3)N2C1=O` (stereo partly drawn) [Compound 806] was tested, and the EC50 was < 10 nM.
In the case of `COC(=O)N[C@H]1CCC[C@H]2CC[C@@H](c3nc(-c4ccc(-c5ccc(-c6c[nH]c([C@@H]7CCCN7C(=O)[C@@H](NC(=O)OC)C(C)C)n6)cc5)cc4)c[nH]3)N2C1=O` [Compound 807], the EC50 is reported as < 10 nM.
